Measured values reported in patent US11065235B2, “Substituted methanopyrido [2, 1-a] isoindolones as mAChR modulators for treating various associated pathophysiological conditions and process for preparation thereof” (COUNCIL OF SCIENTIFIC & INDUSTRIAL RESEARCH, priority 2017, dated 2021).
“Also recorded” adds a separate entry of the source. Like-named read-outs stand apart in the source and are kept apart here.

Assays:
[1] = molecular target: T1, human M5R (Homo sapiens, UniProt P08912); assay: NFAT-luciferase assay, M5; type: cell-based
T1 construct: expressed in transfected cells; host or cells: HEK-293T
T1 sequence (P08912 1-532): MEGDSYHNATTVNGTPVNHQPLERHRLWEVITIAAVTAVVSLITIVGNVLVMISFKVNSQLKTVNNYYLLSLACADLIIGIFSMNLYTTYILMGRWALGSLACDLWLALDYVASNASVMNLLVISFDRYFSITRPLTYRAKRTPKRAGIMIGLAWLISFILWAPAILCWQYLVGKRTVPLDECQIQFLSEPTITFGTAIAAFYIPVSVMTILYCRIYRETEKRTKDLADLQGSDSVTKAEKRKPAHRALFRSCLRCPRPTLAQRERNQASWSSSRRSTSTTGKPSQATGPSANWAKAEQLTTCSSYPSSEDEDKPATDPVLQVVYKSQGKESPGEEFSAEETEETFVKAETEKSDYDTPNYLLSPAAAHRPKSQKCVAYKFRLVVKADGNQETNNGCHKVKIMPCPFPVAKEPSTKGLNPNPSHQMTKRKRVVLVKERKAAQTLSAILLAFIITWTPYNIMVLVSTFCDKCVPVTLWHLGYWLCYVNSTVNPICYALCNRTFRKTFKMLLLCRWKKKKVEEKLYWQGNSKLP
Procedure: (§1) To measure the agonist or antagonist activity at M1, M3 and M5 muscarinic receptor, NFAT-luciferase activity was performed in HEK-293T cells (procured from NCCS, Pune) by co-transfecting with human M1R or M3R or M5R and pGL4.30 (luc2P/NFAT-RE/Hygro; Promega Corp,) in 96 well format. The transfected cells were incubated at 37° C. in tissue culture incubator with 5% CO2 for 14-16 hours. To determine the if the test compounds are agonist, the transfected cells were treated with either 20 μl/well of carbamoyl choline (as a positive control) at various concentrations (10000 nM to 0.01 nM) or with various concentrations of test compounds (in triplicates) and were further incubated for 12 hrs in a humidified tissue culture incubator at 37° C. with 5% CO2. For antagonist mode assay, test compound incubation was followed by addition of 20 μl of 7 μM carbamoylcholine (agonist) to the plate. Following 12-14 hrs of drug treatment, media from the plate was aspirated and 100 μl of sodium luciferin solution (10 mg/ml) was added and luminescence per well was recorded using luminescence plate reader (BMG Labtech).

[2] = molecular target: T2, human M1R (Homo sapiens, UniProt P11229); assay: NFAT-luciferase assay, M1; type: cell-based
T2 construct: expressed in transfected cells; host or cells: HEK-293T
T2 sequence (P11229 1-460): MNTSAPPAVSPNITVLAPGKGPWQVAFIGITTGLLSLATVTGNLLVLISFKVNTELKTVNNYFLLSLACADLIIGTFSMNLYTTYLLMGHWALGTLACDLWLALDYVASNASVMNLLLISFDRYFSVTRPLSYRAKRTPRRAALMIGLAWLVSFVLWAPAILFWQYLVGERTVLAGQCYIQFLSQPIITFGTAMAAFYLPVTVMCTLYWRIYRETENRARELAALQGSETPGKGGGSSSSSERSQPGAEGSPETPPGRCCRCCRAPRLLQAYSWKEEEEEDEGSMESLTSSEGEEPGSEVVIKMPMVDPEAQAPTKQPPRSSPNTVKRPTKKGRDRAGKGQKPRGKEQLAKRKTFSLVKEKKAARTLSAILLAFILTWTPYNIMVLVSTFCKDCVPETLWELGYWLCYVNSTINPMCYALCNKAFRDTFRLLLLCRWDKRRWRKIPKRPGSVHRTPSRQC
Procedure: as §1

[3] = molecular target: T3, human M3R (Homo sapiens, UniProt P20309); assay: NFAT-luciferase assay, M3; type: cell-based
T3 construct: expressed in transfected cells; host or cells: HEK-293T
T3 sequence (P20309 whole entry): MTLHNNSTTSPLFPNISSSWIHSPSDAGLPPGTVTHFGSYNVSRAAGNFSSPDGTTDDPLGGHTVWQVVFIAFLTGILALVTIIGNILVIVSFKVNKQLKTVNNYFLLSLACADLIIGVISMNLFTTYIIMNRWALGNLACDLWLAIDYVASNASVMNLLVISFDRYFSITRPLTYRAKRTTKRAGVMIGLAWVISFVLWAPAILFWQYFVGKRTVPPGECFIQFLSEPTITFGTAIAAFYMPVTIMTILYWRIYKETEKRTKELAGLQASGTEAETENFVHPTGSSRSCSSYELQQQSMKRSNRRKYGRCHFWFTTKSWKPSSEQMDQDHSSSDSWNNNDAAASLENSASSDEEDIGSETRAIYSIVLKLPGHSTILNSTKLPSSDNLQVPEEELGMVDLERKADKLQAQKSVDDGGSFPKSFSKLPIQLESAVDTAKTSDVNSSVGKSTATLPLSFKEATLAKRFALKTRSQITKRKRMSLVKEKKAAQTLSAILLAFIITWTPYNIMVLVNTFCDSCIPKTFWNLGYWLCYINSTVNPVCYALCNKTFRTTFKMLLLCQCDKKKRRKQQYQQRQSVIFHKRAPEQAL
Procedure: as §1

[4] = molecular target: T4, human M2R (Homo sapiens, UniProt P08172); assay: GloSensor cAMP assay (Gi-mediated cAMP inhibition); type: cell-based; details: for IC50: agonist
T4 construct: expressed in transfected cells; host or cells: HEK-293T
T4 sequence (P08172 1-466): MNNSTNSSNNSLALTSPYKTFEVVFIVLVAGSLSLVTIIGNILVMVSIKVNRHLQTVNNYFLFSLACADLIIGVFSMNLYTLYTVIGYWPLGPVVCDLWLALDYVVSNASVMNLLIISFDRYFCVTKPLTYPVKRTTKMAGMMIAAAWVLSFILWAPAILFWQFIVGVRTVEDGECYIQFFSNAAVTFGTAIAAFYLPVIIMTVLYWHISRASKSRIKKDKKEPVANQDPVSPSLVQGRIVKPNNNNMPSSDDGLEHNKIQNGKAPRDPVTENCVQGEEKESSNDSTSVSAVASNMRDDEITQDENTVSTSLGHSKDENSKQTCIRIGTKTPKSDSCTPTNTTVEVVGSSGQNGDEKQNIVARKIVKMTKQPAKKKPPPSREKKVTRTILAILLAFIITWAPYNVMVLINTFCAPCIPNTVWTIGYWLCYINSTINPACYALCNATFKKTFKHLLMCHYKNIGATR
Procedure: To measure M2 muscarinic receptor induced (Gi-mediated) cAMP inhibition, HEK-293T cells (procured from NCCS, Pune) were co-transfected with human M2R and luciferase based cAMP biosensor (pGloSensor™-22F plasmid; Promega) using PEImax method of transfection in the ratio of 1:1. The transfected cells were incubated at 37° C. in tissue culture incubator with 5% CO2 for 14-16 hours. For GloSensor cAMP assay, after overnight incubation, media from the plate was aspirated and 100 μl of sodium luciferin solution in drug buffer (1×HBSS (pH7.4) and 20 mM HEPES) was added to the cell plates. The plates were then incubated at 37° C. in tissue culture incubator with 5% CO2 for 90 minutes. After incubation, cells were treated with 20 μl of 6× diluted standard carbamoyl choline (10000 nM to 0.01 nM) along with test compounds (in triplicates) and were incubated in a humidified tissue culture incubator at 37° C. with 5% CO2 for 10-15 minutes to get a steady state condition. Ligand incubation was followed by addition of 20 μl of 7×(70 μM) forskoline (FSK) to the plate. FSK incubation was followed by incubation at 37° C. for 10-15 minutes and measurement of luminescence per well using luminescence plate reader (BMG Labtech). The results were plotted as inhibition of FSK stimulated cAMP response (relative luminescence units) using nonlinear regression analysis by Graph-Pad prism V.

[5] = tested on: C57BL/6 mice; assay: Locomotor activity in open field arena; type: in vivo; details: 10 mg/kg i.p., acute, 60 minutes following injection, vs vehicle, p<0.05
Description: (§2) All animal experiments and procedures were executed in accordance with the guidelines established in the guide for the care and use of laboratory animals and were approved by the institutional animal ethics committee (IAEC) of CSIR-Central Drug Research Institute, Lucknow, India. In this study, male C57BL/6J mice (6-8 weeks old) weighing 22-25 g were used. They were housed on a 12-h light/dark cycle (lights on at 8.00 am) and food and water were provided ad libitum. Animals were acclimatized to the experimental room 30 minutes prior to the beginning of behavioral procedures. For experimental purpose, animals were randomly divided into four groups: vehicle, RG-02, scopolamine and scopolamine along with RG-02. In scopolamine along with RG-02 group, RG-02 (10 mg/kg, i.p) was injected thirty minutes prior to the scopolamine (0.5 mg/kg, i.p.) injections.
Locomotor activity was tested according to the previously published protocol (Kelly et al, 1998) with slight modifications. Briefly, mice were put in the centre of a clear Plexiglas (40×40×30 cm) open-field arena and were allowed to explore the entire arena for 30 minutes. After 30 minutes of exploration, animals were injected with either RG-02 (10 mg/kg; i.p.) or 0.9% normal saline and were allowed to explore the arena for further 60 minutes. […]

[6] = tested on: Scopolamine induced memory deficit; assay: Novel object recognition (NOR) test, scopolamine induced memory deficit; type: in vivo, mice; details: RG-02 10 mg/kg i.p. + scopolamine 0.5 mg/kg i.p., 7th day
Description: as §2
The NOR test was performed according to the protocol introduced by Ennaceur and Delacour (Ennaceur & Delacour, 1988) with slight modification.
The NOR task procedure consisted of three sessions—[…], familiarization and test session. During habituation session, the mouse was placed in an open field (Square box of 40×40×40 cm), facing the wall of the arena, and allowed to explore the entire arena for 10 minutes. Following habituation period of 10 minutes, the mouse was returned to its home cage.
Between every […] session, the whole arena was cleaned with 10% ethanol to reduce olfactory cues. […] During this session, the test animal was placed in the arena and was allowed to explore the entire arena with familiar and novel object, and its activity was also video recorded. To determine the retention of object memory, the recorded videos of test session were analyzed by independent observer who was unknown to treatment of mice to calculate the time spent in exploring both objects. Data are presented as % time of exploration of familiar or novel object, and discrimination index was calculated as per following equation: (Tn−Tf)/Tt: Discrimination Index […]

[7] = tested on: Scopolamine induced memory deficit; assay: Morris water maze (MWM) test, scopolamine induced learning deficit; type: in vivo, mice
Description: as §2
The Morris water maze (MWM) test was performed according to Morris 1984, with slight modifications. Circular pool of dimensions-100 cm diameter and 45 cm depth, which was filled up to 25 cm from bottom with white colour water. Temperature of water was adjusted to 24-25° C. Pool was divided into four quadrants and a square platform of 10×10 cm in was placed into the tank at a fixed location in the centre of one of the four imaginary quadrants. Training sessions were conducted for 3 consecutive days and on 4th day a probe trial was performed. During training session, mouse was gently placed into the water facing the edge of the pool of one of the quadrant. If the mouse was able to find the platform before the 60 sec cut-off, it was allowed to stay over the platform for 5 more seconds followed by returning to its home cage. […] Total three trials/day were run for each mouse with minimum interval of 10-15 minutes between two trials, and latency to reach the platform was calculated. On the fourth day, for the probe trial, the platform was removed and the time spent in respective quadrant was calculated.

| SMILES | antagonist activity at M5 receptor (in words) [1] | IC50 ([1]; M5, antagonist, N.A. = not active, read-out: pIC50/pEC50 (Mean ± SEM) M5 (converted)) | antagonist activity at M1 receptor (in words) [2] | IC50 ([2]; M1, antagonist, N.A. = not active, read-out: pIC50/pEC50 (Mean ± SEM) M1 (converted)) | antagonist activity at M3 receptor (in words) [3] | selectivity among muscarinic receptors (in words) ([3]; M1, M3 and M5 antagonist profiling) | agonist activity at M2 receptor (in words) [4] | IC50 ([4]; M2, N.A. = not active, read-out: pIC50/pEC50 (Mean ± SEM) M2 (converted)) | IC50 ([4]; read-out: IC50 at M2 receptor) | locomotor activity (total horizontal distance travelled) [5] | percent time exploration for novel object ([6]; vs scopolamine alone / vehicle) | novel object discrimination index ([6]; vs scopolamine alone, p<0.05) | time spent in platform quadrant (probe trial) ([7]; RG-02 10 mg/kg i.p. + scopolamine 0.5 mg/kg i.p., day 4, vs scopolamine alone) | learning the location of hidden platform ([7]; RG-02 alone 10 mg/kg i.p., vs vehicle) |
| --- | --- | --- | --- | --- | --- | --- | --- | --- | --- | --- | --- | --- | --- | --- |
| O=C1[C@@H]2c3ccccc3[C@H]3N2[C@@H]2CCCC(OS(=O)(=O)C(F)(F)F)=C2C[C@@]13S(=O)(=O)c1ccccc1 [RG-12, (6S,6aR,11S,12aR)-13-oxo-6-(phenylsulfonyl)-1,2,3,5,6,6a,11,12a-octahydro-6,11-methanoisoindolo[2,1-a]quinolin-4-yl trifluoromethanesulfonate] | very modest activity | 269 nM | very modest activity | 129 nM | very modest activity | nonselective muscarinic receptor antagonist |  |  |  |  |  |  |  |  |
| O=C1CCC[C@@H]2[C@@H]1C[C@@]1(S(=O)(=O)c3ccccc3)C(=O)[C@@H]3c4ccccc4[C@H]1N32 [RG-02, (4aS,6S,6aR,11S,12aR)-6-(phenylsulfonyl)-1,2,3,4a,5,6,6a,12a-octahydro-6,11-methanoisoindolo[2,1-a]quinoline-4,13(11H)-dione] |  |  |  |  |  |  | most potent agonist at M2 receptor; also recorded: selective M2 muscarinic receptor agonist with high activity | 4.17 nM | 4 nM | significantly increased locomotor activity; also recorded: neurostimulatory effect; also recorded: significant increase in locomotor activity | significantly increased | significantly blocked the negative effect of scopolamine on novel object discrimination; also recorded: significantly increased | increased the time spent in the quadrant with platform; also recorded: significantly increased | no per se effect |
